The text below walks through data of US12264156B2, “Compounds and pharmaceutical compositions thereof for the treatment of diseases” (GALAPAGOS NV, priority 2018, dated 2025).

What is called IC50 is the concentration at which inhibition is half-maximal. The low end stands for higher potency, the high end for lower potency.

SMILES strings stand for the structures.

Holding throughout (format): biochemical
What all share (settings): ADP-Glo SIK kinase assay
(In ADP-Glo the light output rises with the ADP produced.)

The target of one assay is T1, SIK3 (Homo sapiens, UniProt Q9Y2K2).
T1 construct: purchased SignalChem S12-11G-100
T1 sequence (Q9Y2K2 whole entry): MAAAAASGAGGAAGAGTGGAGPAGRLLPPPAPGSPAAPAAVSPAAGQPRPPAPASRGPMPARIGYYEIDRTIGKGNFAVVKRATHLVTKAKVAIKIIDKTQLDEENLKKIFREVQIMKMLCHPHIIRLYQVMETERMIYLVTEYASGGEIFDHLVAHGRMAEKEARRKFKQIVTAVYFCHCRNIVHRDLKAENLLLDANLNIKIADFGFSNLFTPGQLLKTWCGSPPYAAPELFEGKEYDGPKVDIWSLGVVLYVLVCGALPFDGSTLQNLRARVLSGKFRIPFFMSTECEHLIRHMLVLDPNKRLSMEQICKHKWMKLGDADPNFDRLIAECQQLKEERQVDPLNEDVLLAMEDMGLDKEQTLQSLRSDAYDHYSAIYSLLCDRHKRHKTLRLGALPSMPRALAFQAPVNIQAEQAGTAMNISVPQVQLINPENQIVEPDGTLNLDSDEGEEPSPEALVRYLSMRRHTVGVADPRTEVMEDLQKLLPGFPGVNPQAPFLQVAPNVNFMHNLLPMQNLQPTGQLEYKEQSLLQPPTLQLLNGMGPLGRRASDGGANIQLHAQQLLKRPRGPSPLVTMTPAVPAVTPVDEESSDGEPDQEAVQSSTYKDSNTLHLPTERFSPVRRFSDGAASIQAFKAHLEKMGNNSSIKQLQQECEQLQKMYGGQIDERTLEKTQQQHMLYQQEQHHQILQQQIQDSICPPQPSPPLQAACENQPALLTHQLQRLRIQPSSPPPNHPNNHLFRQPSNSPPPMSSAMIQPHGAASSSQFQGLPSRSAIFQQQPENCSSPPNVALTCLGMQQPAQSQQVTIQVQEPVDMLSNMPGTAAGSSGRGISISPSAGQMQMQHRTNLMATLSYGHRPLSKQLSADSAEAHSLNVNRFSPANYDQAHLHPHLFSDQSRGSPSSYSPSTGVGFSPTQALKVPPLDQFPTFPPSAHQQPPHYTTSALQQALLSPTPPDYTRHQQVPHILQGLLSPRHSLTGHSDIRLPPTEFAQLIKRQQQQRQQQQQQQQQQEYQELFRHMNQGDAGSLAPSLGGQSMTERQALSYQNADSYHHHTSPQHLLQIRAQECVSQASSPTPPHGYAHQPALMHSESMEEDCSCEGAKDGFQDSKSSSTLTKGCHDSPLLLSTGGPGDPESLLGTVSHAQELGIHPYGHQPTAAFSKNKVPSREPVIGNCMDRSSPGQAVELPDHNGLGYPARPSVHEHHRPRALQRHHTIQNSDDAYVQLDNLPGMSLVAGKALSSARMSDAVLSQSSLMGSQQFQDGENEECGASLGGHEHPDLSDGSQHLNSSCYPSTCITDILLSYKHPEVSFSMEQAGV
Description: ADP-Glo kinase assay, SIK3. The method, boiled down:
(§1)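 ADP-Glo, RT throughout. Enz/substrate + ATP, 120 min; ADP-Glo reagent 40 min (ATP depletion); detection reagent 30 min; luminescence read. Neg ctrl 1% DMSO, pos ctrl 10 μM staurosporine, final concs.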

The target of the next assay is T2, SIK2 (Homo sapiens, UniProt Q9H0K1).
T2 construct: purchased ThermoFisher Scientific PV4792
T2 sequence (Q9H0K1 whole entry): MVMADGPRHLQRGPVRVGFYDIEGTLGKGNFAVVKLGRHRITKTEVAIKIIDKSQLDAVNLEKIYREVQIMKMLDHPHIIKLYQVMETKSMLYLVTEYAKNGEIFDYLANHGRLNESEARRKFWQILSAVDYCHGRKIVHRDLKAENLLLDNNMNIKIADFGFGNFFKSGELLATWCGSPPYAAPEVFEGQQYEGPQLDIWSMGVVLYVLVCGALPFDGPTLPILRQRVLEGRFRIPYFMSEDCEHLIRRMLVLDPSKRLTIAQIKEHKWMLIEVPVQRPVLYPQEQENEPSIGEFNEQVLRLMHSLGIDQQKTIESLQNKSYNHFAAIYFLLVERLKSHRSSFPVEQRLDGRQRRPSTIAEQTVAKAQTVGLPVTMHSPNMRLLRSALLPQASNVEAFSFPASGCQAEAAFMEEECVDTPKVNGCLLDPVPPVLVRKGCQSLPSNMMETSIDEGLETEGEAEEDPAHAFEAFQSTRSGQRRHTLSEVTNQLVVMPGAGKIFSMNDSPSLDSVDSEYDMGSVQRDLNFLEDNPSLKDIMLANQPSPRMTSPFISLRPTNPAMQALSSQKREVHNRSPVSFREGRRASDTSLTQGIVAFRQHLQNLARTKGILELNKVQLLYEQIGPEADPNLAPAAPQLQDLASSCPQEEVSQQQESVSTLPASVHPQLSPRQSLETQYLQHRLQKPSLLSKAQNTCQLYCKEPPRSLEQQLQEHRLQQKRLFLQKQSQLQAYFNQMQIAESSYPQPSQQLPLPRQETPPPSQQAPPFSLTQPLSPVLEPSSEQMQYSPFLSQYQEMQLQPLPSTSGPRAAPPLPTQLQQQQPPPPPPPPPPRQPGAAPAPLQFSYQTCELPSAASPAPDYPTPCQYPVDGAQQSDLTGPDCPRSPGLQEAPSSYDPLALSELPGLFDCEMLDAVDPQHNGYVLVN
Kind of assay: ADP-Glo kinase assay, SIK2. The method, boiled down: as §1

In a further assay the target is T3, SIK1 (Homo sapiens, UniProt P57059).
T3 construct: purchased Carna Biosciences 02-131
T3 sequence (P57059 whole entry): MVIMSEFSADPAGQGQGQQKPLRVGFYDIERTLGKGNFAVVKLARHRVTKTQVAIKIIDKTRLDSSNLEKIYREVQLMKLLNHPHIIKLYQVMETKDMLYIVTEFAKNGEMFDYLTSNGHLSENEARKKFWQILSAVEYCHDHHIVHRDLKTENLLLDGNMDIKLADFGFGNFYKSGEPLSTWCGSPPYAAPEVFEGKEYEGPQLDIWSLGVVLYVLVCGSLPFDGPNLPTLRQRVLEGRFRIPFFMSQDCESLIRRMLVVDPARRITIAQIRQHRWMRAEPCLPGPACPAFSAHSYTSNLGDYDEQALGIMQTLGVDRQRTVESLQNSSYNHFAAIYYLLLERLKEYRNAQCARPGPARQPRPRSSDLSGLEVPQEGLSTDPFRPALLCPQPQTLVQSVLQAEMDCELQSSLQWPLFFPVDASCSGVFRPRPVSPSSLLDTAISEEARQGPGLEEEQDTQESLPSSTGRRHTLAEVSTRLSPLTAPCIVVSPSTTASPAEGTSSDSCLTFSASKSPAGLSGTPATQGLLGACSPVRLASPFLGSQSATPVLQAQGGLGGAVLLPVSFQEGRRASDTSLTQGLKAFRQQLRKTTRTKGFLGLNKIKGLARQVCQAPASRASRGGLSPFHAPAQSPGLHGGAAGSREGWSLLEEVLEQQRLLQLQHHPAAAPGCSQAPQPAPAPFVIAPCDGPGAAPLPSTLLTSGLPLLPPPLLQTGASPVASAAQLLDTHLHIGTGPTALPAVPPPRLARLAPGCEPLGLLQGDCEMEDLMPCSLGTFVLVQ
Kind of assay: ADP-Glo kinase assay, SIK1. The procedure, abridged: as §1

For `COc1cc(-c2cnc3cc(OCc4nccn4C(C)C)ccn23)cc(OC(F)F)c1C(=O)NC1CC1` [compound 175, N-cyclopropyl-2-(difluoromethoxy)-4-[7-[(1-isopropylimidazol-2-yl)methoxy]imidazo[1,2-a]pyridin-3-yl]-6-methoxy-benzamide], the IC50 on SIK3 fell in the range of 0.01 to 10 nM; on SIK2 it was 0.01 to 10 nM; against SIK1 it was 100 to 500 nM.

On to `COc1cc(-c2cnc3cc(OCC4(N)CCOC4)ccn23)cc(OC(F)F)c1C(=O)NC1CC1` (stereo not drawn) [compound 176, 4-[7-[(3-aminotetrahydrofuran-3-yl)methoxy]imidazo[1,2-a]pyridin-3-yl]-N-cyclopropyl-2-(difluoromethoxy)-6-methoxy-benzamide], for which the IC50 at SIK3 is 0.01 to 10 nM; on SIK2 it was 0.01 to 10 nM; at SIK1, 10 to 100 nM.

For `COc1cc(-c2cnc3cc(OCCN4CCOCC4C#N)ccn23)cc(OC(F)F)c1C(=O)NC1CC1` (stereo not drawn) [compound 178, 4-[7-[2-(3-cyanomorpholin-4-yl)ethoxy]imidazo[1,2-a]pyridin-3-yl]-N-cyclopropyl-2-(difluoromethoxy)-6-methoxy-benzamide], the values for the concentration for half-maximal inhibition (IC50) on SIK3, against SIK2 and at SIK1 were 0.01 to 10 nM, 0.01 to 10 nM and 10 to 100 nM, respectively.

With `COc1cc(-c2cnc3cc(OCCN4CCOC(C(F)(F)F)C4)ccn23)cc(OC(F)F)c1C(=O)NC1CC1` (stereo not drawn) [compound 179, N-cyclopropyl-2-(difluoromethoxy)-6-methoxy-4-[7-[2-[2-(trifluoromethyl)morpholin-4-yl]ethoxy]imidazo[1,2-a]pyridin-3-yl]benzamide], the values for the half-maximal inhibitory concentration (IC50) against SIK3, against SIK2 and against SIK1 were 0.01 to 10 nM, 0.01 to 10 nM and 10 to 100 nM, respectively.

Take `COc1cc(-c2cnc3cc(OCCN4CCC(F)(F)C4)ccn23)cc(OC(F)F)c1C(=O)NC1CC1` [compound 180, N-cyclopropyl-2-(difluoromethoxy)-4-[7-[2-(3,3-difluoropyrrolidin-1-yl)ethoxy]imidazo[1,2-a]pyridin-3-yl]-6-methoxy-benzamide]: the IC50 at SIK3 was in the range of 0.01 to 10 nM; against SIK2, 0.01 to 10 nM; against SIK1, 10 to 100 nM.

`CNCCOc1ccn2c(-c3cc4c(c(OC)c3)C(=O)N(CC(F)(F)F)CC4)cnc2c1` [compound 185, 8-methoxy-6-[7-[2-(methylamino)ethoxy]imidazo[1,2-a]pyridin-3-yl]-2-(2,2,2-trifluoroethyl)-3,4-dihydroisoquinolin-1-one]: the IC50 on SIK3 was in the range of 0.01 to 10 nM; at SIK2, 0.01 to 10 nM; at SIK1, 100 to 500 nM.

Turning to `COc1cc(-c2cnc3cc(OCCN4CC(F)(F)C4)ccn23)cc(OC(F)F)c1C(=O)NC1CC1` [compound 186, N-cyclopropyl-4-[7-[2-(3,3-difluoroazetidin-1-yl)ethoxy]imidazo[1,2-a]pyridin-3-yl]-2-(difluoromethoxy)-6-methoxy-benzamide], the IC50 against SIK3 fell in the range of 0.01 to 10 nM; against SIK2, 0.01 to 10 nM; on SIK1, 10 to 100 nM.

As to `COc1cc(-c2cnc3cc(OCCN4CCOCC4(C)C)ccn23)cc(OC(F)F)c1C(=O)NC1CC1` [compound 192, N-cyclopropyl-2-(difluoromethoxy)-4-[7-[2-(3,3-dimethylmorpholin-4-yl)ethoxy]imidazo[1,2-a]pyridin-3-yl]-6-methoxy-benzamide], the 50% inhibitory concentration (IC50) fell in the range of 0.01 to 10 nM at SIK3, 0.01 to 10 nM against SIK2 and 10 to 100 nM on SIK1.

For the compound `COc1cc(-c2cnc3cc(OCCN4CCOC(C)(C)C4)ccn23)cc(OC(F)F)c1C(=O)NC1CC1` [compound 194, N-cyclopropyl-2-(difluoromethoxy)-4-[7-[2-(2,2-dimethylmorpholin-4-yl)ethoxy]imidazo[1,2-a]pyridin-3-yl]-6-methoxy-benzamide], the IC50 was 0.01 to 10 nM against SIK3, 0.01 to 10 nM against SIK2 and 10 to 100 nM on SIK1.

Consider `COc1cc(-c2cnc3cc(OCCN4CC5CCC(C4)O5)ccn23)cc(OC(F)F)c1C(=O)NC1CC1` [compound 195, N-cyclopropyl-2-(difluoromethoxy)-6-methoxy-4-[7-[2-(8-oxa-3-azabicyclo [3.2.1]octan-3-yl)ethoxy]imidazo[1,2-a]pyridin-3-yl]benzamide], for which the half-inhibitory concentration (IC50) on SIK3 lay within 0.01 to 10 nM; on SIK2, 0.01 to 10 nM; against SIK1, 10 to 100 nM.

`COc1cc(-c2cnc3cc(OCCN4CCOC(C5CC5)C4)ccn23)cc(OC(F)F)c1C(=O)NC1CC1` (stereo not drawn) [compound 196, N-cyclopropyl-4-[7-[2-(2-cyclopropylmorpholin-4-yl)ethoxy]imidazo[1,2-a]pyridin-3-yl]-2-(difluoromethoxy)-6-methoxy-benzamide]: the IC50 on SIK3 was 0.01 to 10 nM; against SIK2, 0.01 to 10 nM; against SIK1 it was 10 to 100 nM.

Turning to `COc1cc(-c2cnc3cc(OCc4cc(C)nn4C)ccn23)cc(OC(F)F)c1C(=O)NC1CC1` [compound 198, N-cyclopropyl-2-(difluoromethoxy)-4-[7-[(2,5-dimethylpyrazol-3-yl)methoxy]imidazo[1,2-a]pyridin-3-yl]-6-methoxy-benzamide], the IC50 lay in the range of 0.01 to 10 nM at SIK3, 0.01 to 10 nM against SIK2 and 10 to 100 nM at SIK1.

As for `COc1cc(-c2cnc3cc(OCc4cnn(C)c4)ccn23)cc(OC(F)F)c1C(=O)NC1CC1` [compound 199, N-cyclopropyl-2-(difluoromethoxy)-6-methoxy-4-[7-[(1-methylpyrazol-4-yl)methoxy]imidazo[1,2-a]pyridin-3-yl]benzamide], the IC50 against SIK3 lay in the range of 0.01 to 10 nM; at SIK2 it was 0.01 to 10 nM; against SIK1, 10 to 100 nM.

With `COc1cc(-c2cnc3cc(OCc4ccn(C)n4)ccn23)cc(OC(F)F)c1C(=O)NC1CC1` [compound 200, N-cyclopropyl-2-(difluoromethoxy)-6-methoxy-4-[7-[(1-methylpyrazol-3-yl)methoxy]imidazo[1,2-a]pyridin-3-yl]benzamide], the IC50 at SIK3 lay within 0.01 to 10 nM; on SIK2 it was 0.01 to 10 nM; on SIK1 it was 10 to 100 nM.

As to `COc1cc(-c2cnc3cc(OCC4COCCN4C)ccn23)cc(OC(F)F)c1C(=O)NC1CC1` (stereo not drawn) [compound 201, N-cyclopropyl-2-(difluoromethoxy)-6-methoxy-4-[7-[(4-methylmorpholin-3-yl)methoxy]imidazo[1,2-a]pyridin-3-yl]benzamide], the figures for the IC50 against SIK3, against SIK2 and against SIK1 were 0.01 to 10 nM, 10 to 100 nM and 10 to 100 nM, respectively.

For the compound `COc1cc(-c2cnc3cc(OCC(C)N(C)C)ccn23)cc(OC(F)F)c1C(=O)NC1CC1` (stereo not drawn) [compound 202, N-cyclopropyl-2-(difluoromethoxy)-4-[7-[2-(dimethylamino)propoxy]imidazo[1,2-a]pyridin-3-yl]-6-methoxy-benzamide], the concentration for half-maximal inhibition (IC50) against SIK3 is 0.01 to 10 nM; against SIK2, 0.01 to 10 nM; against SIK1 it was 100 to 500 nM.

Turning to `CCC(COc1ccn2c(-c3cc(OC)c(C(=O)NC4CC4)c(OC(F)F)c3)cnc2c1)N(C)C` (stereo not drawn) [compound 203], the IC50 was in the range of 0.01 to 10 nM on SIK3, 10 to 100 nM against SIK2 and 100 to 500 nM against SIK1.

`COc1cc(-c2cnc3cc(OCCc4cnn(C)c4)ccn23)cc(OC(F)F)c1C(=O)NC1CC1` [compound 204, N-cyclopropyl-2-(difluoromethoxy)-6-methoxy-4-[7-[2-(1-methylpyrazol-4-yl)ethoxy]imidazo[1,2-a]pyridin-3-yl]benzamide]: the IC50 against SIK3, against SIK2 and at SIK1 was 0.01 to 10 nM throughout.

As for `COc1cc(-c2cnc3cc(OCc4nnc(C5CC5)o4)ccn23)cc(OC(F)F)c1C(=O)NC1CC1` [compound 205, N-cyclopropyl-4-[7-[(5-cyclopropyl-1,3,4-oxadiazol-2-yl)methoxy]imidazo[1,2-a]pyridin-3-yl]-2-(difluoromethoxy)-6-methoxy-benzamide], the IC50 at SIK3, against SIK2 and on SIK1 was 0.01 to 10 nM in each case.

As for `COc1cc(-c2cnc3cc(OCC4(F)CNC4)ccn23)cc(OC(F)F)c1C(=O)NC1CC1` [compound 207, N-cyclopropyl-2-(difluoromethoxy)-4-[7-[(3-fluoroazetidin-3-yl)methoxy]imidazo[1,2-a]pyridin-3-yl]-6-methoxy-benzamide], the IC50 against SIK3 was 0.01 to 10 nM; against SIK2 it was 0.01 to 10 nM; at SIK1 it was 10 to 100 nM.

As for `COc1cc(-c2cnc3cc(OCC4(C)CNC4)ccn23)cc(OC(F)F)c1C(=O)NC1CC1` [compound 208, N-cyclopropyl-2-(difluoromethoxy)-6-methoxy-4-[7-[(3-methylazetidin-3-yl)methoxy]imidazo[1,2-a]pyridin-3-yl]benzamide], the figures for the IC50 against SIK3, against SIK2 and against SIK1 were 0.01 to 10 nM, 0.01 to 10 nM and 10 to 100 nM, respectively.

Regarding `COc1cc(-c2cnc3cc(OCCN4CCOCC4)ccn23)cc2cc[nH]c(=O)c12` [compound 210, 8-methoxy-6-[7-(2-morpholinoethoxy)imidazo [1,2-a]pyridin-3-yl]-2H-isoquinolin-1-one], the IC50 is 10 to 100 nM at SIK3, 0.01 to 10 nM against SIK2 and 10 to 100 nM at SIK1.

In the case of `COc1cc(-c2cnc3cc(OCCN4CCCC(F)(F)C4)ccn23)cc(OC(F)F)c1C(=O)NC1CC1` [compound 211, N-cyclopropyl-2-(difluoromethoxy)-4-[7-[2-(3,3-difluoro-1-piperidyl)ethoxy]imidazo [1,2-a]pyridin-3-yl]-6-methoxy-benzamide], the IC50 at SIK3, against SIK2 and on SIK1 was 0.01 to 10 nM throughout.
